Measurements as given in US20100022457A1 (Bristol-Myers Squibb Company, priority 2006, published 2010).
Read-outs that look alike come from different tables or passages of the source. Where a SMILES comes first, the peptide text is derived from it. [ ]: non-standard residue; d: D form. The star is where a group is joined. ξ: configuration not given here. Ala(6-(2-MePh)pyridin-3-yl) = Cc1ccccc1-c1ccc(C[C@H](N)C(=O)O)cn1; Phe(4-(2-Et-4-HO-Ph)) = CCc1cc(O)ccc1-c1ccc(C[C@H](N)C(=O)O)cc1; Bip(2'-Et-4'-OMe) = CCc1cc(OC)ccc1-c1ccc(C[C@H](N)C(=O)O)cc1; Lactoyl(3-(imidazol-4-yl)) = O=C([C@@H](O)Cc1c[nH]cn1)*; Bip(2'-Me) = Cc1ccccc1-c1ccc(C[C@H](N)C(=O)O)cc1; d(αMePhe(2-F)) = C[C@@](N)(Cc1ccccc1F)C(=O)O; αMePhe(2-F) = C[C@](N)(Cc1ccccc1F)C(=O)O; ξαMePhe(2-F) = CC(N)(Cc1ccccc1F)C(=O)O; Thr(3ξ) = CC(O)[C@H](N)C(=O)O; ξαMeP = CC1(C(=O)O)CCCN1; Aib = CC(C)(N)C(=O)O; Moc = COC(=O)*

Tests used:
[1] = Dog pharmacokinetic study (intravenous and subcutaneous, 67 μg/kg); assay type: in vivo; conditions: for half-life: read-out: t½ (converted)
Method: The pharmacokinetic parameters of the compound of SEQ ID NO:9 were determined in male beagle dogs (n=4, 14±1 kg). Following an overnight fast, each animal received the compound of SEQ ID NO:9 either as an intravenous bolus via femoral vein (67 μg/kg) or by subcutaneous injection given at near the shoulder blades (67 μg/kg). Each animal received both intravenous and subcutaneous doses with a one-week washout between doses following a crossover design. […] Serial blood samples were collected in EDTA-containing microcentrifuge tubes at predose, 0.083, 0.25, 0.5, 0.75, 1, 2, 4, 6, 8, 24, and 30 hours post-dose after intravenous administration; at predose, 0.25, 0.5, 0.75, 1, 2, 4, 6, 8, 24, and 30 hours post-dose after subcutaneous administration. Approximately 0.3 mL of blood was collected at each time point. Blood samples were immediately centrifuged at 4° C. The obtained plasma was frozen with dry ice and stored at −20° C. Plasma drug levels were determined using the LC-MS/MS assay described above.
Plasma samples from in vivo dog study were prepared for analysis by precipitating plasma proteins with two volumes of acetonitrile containing an internal standard. The samples were vortex mixed and removed the precipitated proteins by centrifugation. The resulting supernatants were transferred to a 96-well plate and 10 μL were injected for analysis. Samples were prepared with the Packard Multiprobe II and Quadra 96 Liquid Handling System.
The HPLC system consisted of two Shimadzu LC10AD pumps (Columbia, Md.), a CTC PAL autosampler (Leap Technologies, Switzerland). The column used was a YMC Hydrosphere C18 (2.0×50 mm, 3 μm) (YMC, Inc., Milford, Mass.). The column temperature was maintained at 50° C. and the flow rate was 0.3 mL/minute. The mobile phase A consisted of 10 mM ammonium formate and 0.1% formic acid in water and mobile phase B consisted of 0.1% formic acid in acetonitrile. The initial mobile phase composition was 5% B, and remained at 5% B for one minute to equilibrate the column. The composition was ramped to 95% B over two minutes and held there for one additional minute. The mobile phase was then returned to initial conditions in one minute. Total analysis time was five minutes. A switching valve was used. The eluents between 0-1 minute were diverted to the waste.
The HPLC was interfaced to a Sciex API 4000 mass spectrometer, (Applied Biosystems, Foster City, Calif.) and was equipped with a TurboIonspray ionization source. Ultra high purity nitrogen was used as the nebulizing and turbo gas. The temperature of turbo gas was set at 300° C. and the interface heater was set at 60° C. Data acquisition utilized selected reaction monitoring (SRM). Ions representing the (M+2H)^2+ species for the compound of SEQ ID NO:9, and (M+2H)^2+ for BMS-501143 (IS) were selected in Q1 and were collisionally dissociated with high purity nitrogen at a pressure of 3.5×10^−3 torr to form specific product ions which were subsequently monitored by Q3.
The standard curve concentrations, ranging from 1 to 1000 nM and from 4 to 5000 nM, were used for the in vivo samples obtained from low and high doses, respectively. The curves were fitted with a quadratic regression weighted by reciprocal […]. Standards were analyzed in duplicate. Quality control (QC) samples, prepared in blank matrix at the same concentrations as the standard were also analyzed in each analytical set. For the compound of SEQ ID NO:9, the calculated concentrations of more than 80% of the QCs were within 20% of nominal concentration, indicating acceptable assay performance.
The compound of SEQ ID NO:9 plasma concentration vs. time data were analyzed by noncompartmental methods using the […]™ software program. The Cmax and Tmax values were recorded directly from experimental observations. The AUC0-n and AUCtot values were calculated using a combination of linear and log trapezoidal summations. […]

[2] = Exposure during ipGTT in ob/ob mice; assay type: in vivo, mouse; conditions: sc
C57BL/6J-ob/ob mice = experiment: Intraperitoneal glucose tolerance test (ipGTT) in ob/ob mice after subcutaneous injection; assay type: in vivo, mouse; conditions: for effect on postprandial plasma glucose: sc in ob/ob mice, between 0 and 180 or 210 minutes; for Potency in ob/ob mice ED50: sc injection, plasma glucose AUC in ipGTT
Method: Peptides were dissolved in an appropriate vehicle at a concentration in nmol/ml equivalent to the dose that was to be administered in nmol/kg so that each mouse would receive the same volume/weight of dosing solution. Male C57BL/6J-ob/ob mice (10 weeks old) were randomized into groups of 6 mice per group based on fed plasma glucose and body weight. After an overnight fast, mice were weighed and placed in the experimental lab. After 30 min in the environment, the mice were bled via tail tip at −30 min and immediately injected subcutaneously (sc) with vehicle or the peptide dissolved in vehicle (0.1 ml solution/100 g body weight). At time 0 the mice were bled and then injected intraperitoneally with 50% glucose (2 g/kg) to initiate the intraperitoneal glucose tolerance test (ipGTT). The mice were bled 30, 60, 120 and 180 min after the glucose injection. Blood samples were drawn into potassium EDTA, placed on ice during the study and subsequently centrifuged for 10 min at 3000 rpm at 4° C. Plasma samples were diluted 1-fold for glucose analysis in the Cobas System. Another 5 μl plasma sample was diluted 5-fold with 20 μl of Sample Diluent (Insulin ELISA assay kit, Crystal Chem Inc.) and stored at −20° C. for subsequent analysis using the Ultra Sensitive Mouse Insulin ELISA kit (Crystal Chem Inc.).

[3] = Table I, vehicle 0.2 M Tris buffer (pH 8.0)
[4] = male, beagle, plasma, 67 ug/kg, dog, intravenous 67 μg/kg, Tables 6B/6C, vehicle not given
[5] = male, beagle, plasma, sc, 67 ug/kg, dog, subcutaneous 67 μg/kg, Tables 6B/6C (Table I footnote: 0.2 M Tris buffer pH 8.0)
[6] = Table I, vehicle propylene glycol/pH 7.4 phosphate buffer (1:1)
[7] = Table II, vehicle propylene glycol/pH 7.4 phosphate buffer (1:1)

| Structure (SMILES) | Exposure in dogs (sc@67 μg/kg) [1, 3] [µM·h] | Exposure/dose during ipGTT in ob/ob mice [2] [nM*h/nmol/kg] | Exposure in dogs (sc@67 μg/kg) [1, 6] [µM·h] | Exposure in dogs (sc@67 μg/kg) [1, 7] [µM·h] | effect on postprandial plasma glucose (C57BL/6J-ob/ob mice) | Potency in ob/ob mice ED50 (C57BL/6J-ob/ob mice) [nmol/kg] | further results |
| --- | --- | --- | --- | --- | --- | --- | --- |
| CCc1cc(OC)ccc1-c1ccc(C[C@H](NC(=O)[C@H](CC(=O)O)NC(=O)[C@H](CO)NC(=O)[C@@H](NC(=O)C(C)(Cc2ccccc2F)NC(=O)[C@@H](NC(=O)CNC(=O)[C@H](CCC(=O)O)NC(=O)C2(C)CCCN2C(=O)[C@@H](N)Cc2c[nH]cn2)[C@@H](C)O)[C@@H](C)O)C(=O)N[C@@H](Cc2ccc(-c3ccccc3C)nc2)C(N)=O)cc1 (stereo partly shown) [SEQ ID NO: 118] (H-H[ξαMeP]EGT[ξαMePhe(2-F)]TSD[Bip(2'-Et-4'-OMe)][Ala(6-(2-MePh)pyridin-3-yl)]-NH2) | – | 4.4 | 4.02 | – | statistically significant decrease | 2.5 | plasma glucose AUC decrease (C57BL/6J-ob/ob mice; 30 nmol/kg sc, ipGTT ob/ob mice): 81% |
| CCc1cc(OC)ccc1-c1ccc(C[C@H](NC(=O)[C@H](CC(=O)O)NC(=O)[C@H](CO)NC(=O)[C@@H](NC(=O)[C@](C)(Cc2ccccc2F)NC(=O)[C@@H](NC(=O)CNC(=O)[C@H](CCC(=O)O)NC(=O)[C@@H](C)NC(=O)[C@@H](N)Cc2c[nH]cn2)[C@@H](C)O)[C@@H](C)O)C(=O)N[C@@H](Cc2ccc(-c3ccccc3C)nc2)C(N)=O)cc1 [SEQ ID NO: 149] (H-H[dA]EGT[αMePhe(2-F)]TSD[Bip(2'-Et-4'-OMe)][Ala(6-(2-MePh)pyridin-3-yl)]-NH2) | – | – | – | 0.94 | – | – | – |
| CCc1cc(OC)ccc1-c1ccc(C[C@H](NC(=O)[C@H](CC(=O)O)NC(=O)[C@H](CO)NC(=O)[C@@H](NC(=O)[C@@](C)(Cc2ccccc2F)NC(=O)[C@@H](NC(=O)CNC(=O)[C@H](CCC(=O)O)NC(=O)C(C)(C)NC(=O)[C@@H](N)Cc2c[nH]cn2)C(C)O)C(C)O)C(=O)N[C@@H](Cc2ccc(-c3ccccc3C)cc2)C(N)=O)cc1 (stereo partly shown) [Compound I, reference compound] (H-H[Aib]EG[Thr(3ξ)][d(αMePhe(2-F))][Thr(3ξ)]SD[Bip(2'-Et-4'-OMe)][Bip(2'-Me)]-NH2) | – | 22 | 0.089 | 0.089 | – | 50 | Potency in ob/ob mice: % AUC Reduction in Plasma Glucose in an IP Glucose Tolerance Test after SC Injection of Compound (C57BL/6J-ob/ob mice; 10 nmol/kg sc, relative to vehicle-treated group): −15% (p = 0.247, NS) |

The next lines start with results.

| Exposure in dogs (sc@67 μg/kg) [1, 3] [µM·h] | Exposure/dose during ipGTT in ob/ob mice [2] [nM*h/nmol/kg] | Exposure in dogs (sc@67 μg/kg) [1, 6] [µM·h] | Exposure in dogs (sc@67 μg/kg) [1, 7] [µM·h] | Structure (SMILES) | effect on postprandial plasma glucose (C57BL/6J-ob/ob mice) | Potency in ob/ob mice ED50 (C57BL/6J-ob/ob mice) [nmol/kg] | further results |
| --- | --- | --- | --- | --- | --- | --- | --- |
| 1.467 | 11 | – | – | CCc1cc(O)ccc1-c1ccc(C[C@H](NC(=O)[C@H](CC(=O)O)NC(=O)[C@H](CO)NC(=O)[C@@H](NC(=O)C(C)(Cc2ccccc2F)NC(=O)[C@@H](NC(=O)CNC(=O)[C@H](CCC(=O)O)NC(=O)C2(C)CCCN2C(=O)[C@H](Cc2c[nH]cn2)NC(=O)OC)[C@@H](C)O)[C@@H](C)O)C(=O)N[C@@H](Cc2ccc(-c3ccccc3C)nc2)C(N)=O)cc1 (stereo partly shown) [SEQ ID NO: 158] (Moc-H[ξαMeP]EGT[ξαMePhe(2-F)]TSD[Phe(4-(2-Et-4-HO-Ph))][Ala(6-(2-MePh)pyridin-3-yl)]-NH2) | statistically significant decrease | – | – |
| 1.566 | 16 | – | – | CCc1cc(OC)ccc1-c1ccc(C[C@H](NC(=O)[C@H](CC(=O)O)NC(=O)[C@H](Cc2c[nH]cn2)NC(=O)[C@@H](NC(=O)C(C)(Cc2ccccc2F)NC(=O)[C@@H](NC(=O)CNC(=O)[C@H](CCC(=O)O)NC(=O)C2(C)CCCN2C(=O)[C@@H](O)Cc2c[nH]cn2)[C@@H](C)O)[C@@H](C)O)C(=O)N[C@@H](Cc2ccc(-c3ccccc3C)nc2)C(N)=O)cc1 (stereo partly shown) [SEQ ID NO: 151] ({Lactoyl(3-(imidazol-4-yl))}-[ξαMeP]EGT[ξαMePhe(2-F)]THD[Bip(2'-Et-4'-OMe)][Ala(6-(2-MePh)pyridin-3-yl)]-NH2) | statistically significant decrease | – | AUC [1, 4]: 1.52 ± 0.424 µM·h; MRT [1, 4]: 4.4 ± 0.1 h; clearance ([1]; male, beagle, plasma, 67 ug/kg, dog, intravenous 67 μg/kg, Tables 6B/6C, vehicle not given, read-out: CLp): 0.49 ± 0.16 mL/min/kg; Vd ([1]; male, beagle, plasma, 67 ug/kg, dog, intravenous 67 μg/kg, Tables 6B/6C, vehicle not given, read-out: Vss): 0.13 ± 0.05 L/kg; half-life [1, 4]: 4 ± 0.2 h; AUC [1, 5]: 1.57 ± 0.235 µM·h; MRT [1, 5]: 5.8 ± 1 h; Tmax [1, 5]: 1.8 ± 0.5 h; bioavailability [1, 5]: 110 ± 41%; Cmax ([1]; male, beagle, plasma, sc, 67 ug/kg, dog, subcutaneous 67 μg/kg, Tables 6B/6C (Table I footnote: 0.2 M Tris buffer pH 8.0), read-out: Cmax): 252 ± 15 nM; half-life [1, 5]: 4.4 ± 1.4 h |
